Patent US10457689B2, “Ammonium derivatives, a process for their preparation and pharmaceutical compositions containing them” (LES LABORATOIRES SERVIER, priority 2016, dated 2019)
Counter-ions that a name gives are not always drawn.

Assays:
Mcl-1 protein = Mcl-1 protein (Homo sapiens, UniProt Q07820); test: Inhibition of Mcl-1 by the fluorescence polarisation technique; type: binding; details: fluorescence polarisation test; read-out: IC50 (M) Mcl-LFP
Procedure: The relative, binding potency of each compound was determined via Fluorescence Polarisation (FP). The method utilised a Fluorescein labelled ligand (Fluorescein-βAla-Ahx-A-REIGAQLRRMADDLNAQY-OH; mw 2,765) which binds to the Mcl-1 protein (such that Mcl-1 corresponds to the UniProtKB® primary accession number: Q07820) leading to an increased anisotropy measured in milli-polarisation (mP) units using a reader. The addition of a compound which binds competitively to the same site as the ligand will result in a greater proportion of unbound ligand in the system indicated by a decrease in mP units.
An 11 point serial dilution of each compound was prepared in DMSO and 2 μl transferred into flat bottomed, low binding, 384-well plate (final DMSO concentration 5%), 38 μl of buffer (10 mM 4-(2-hydroxyethyl)-1-piperazineethanesolfonic acid [HEPES], 150 mM NaCl, 0.05% Tween 20, pH 7.4), containing the Fluorescein labelled ligand (final concentration 1 nM) and Mcl-1 protein (final concentration 5 nM) was then added.
Assay plates were incubated ˜2 hours at room temperature before FP was measured on a […] Synergy2 reader (Ex. 528 nm, Em. 640 nm, Cut off 510 nm) and mP units calculated. The binding of increasing doses of test compound was expressed as a percentage reduction in mP compared to a window established between ‘5% DMSO only’ and ‘100% inhibition’ controls. 11-point dose response curves were plotted with XL-Fit software using a 4-Parameter Logistic Model (Sigmoidal Dose-Response Model) and the inhibitory concentrations that gave a 50% reduction in mP (IC50) were determined.

[1] = system: H929 multiple myeloma tumour line; test: In vitro cytotoxicity (MTT); type: cell-based; details: 48 hours exposure
Procedure: The cytotoxicity studies were carried out on the H929 multiple myeloma tumour line.
The cells are distributed onto microplates and exposed to the test compound for 48 hours.
The cell viability is then quantified by a colorimetric assay, the Microculture Tetrazolium Assay (Carmichael et al. Cancer Res. 1987, 47, 936-942).

Chain of Mcl-1 protein (Q07820 whole entry): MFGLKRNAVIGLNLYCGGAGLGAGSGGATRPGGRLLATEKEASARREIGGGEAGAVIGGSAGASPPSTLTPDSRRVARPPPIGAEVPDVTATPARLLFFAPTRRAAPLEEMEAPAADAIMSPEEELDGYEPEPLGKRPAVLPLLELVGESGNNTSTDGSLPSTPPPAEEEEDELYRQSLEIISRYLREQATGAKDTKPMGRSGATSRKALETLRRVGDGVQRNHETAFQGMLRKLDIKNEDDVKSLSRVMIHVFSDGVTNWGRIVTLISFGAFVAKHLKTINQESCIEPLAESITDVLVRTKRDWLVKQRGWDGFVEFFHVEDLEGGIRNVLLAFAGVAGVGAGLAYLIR

Compound	IC50 (Mcl-1 protein) [M]	IC50 ([1]; H929 cells) [nM]	IC50 ([1]; Homo sapiens, NCI-H929, H929 cells) [nM]
COc1ccccc1-c1nccc(COc2ccccc2CC(Oc2ncnc3sc(-c4ccc(F)cc4)c(-c4ccc(OCCN5CC[N+](C)(COC(=O)C(C)(C)C)CC5)c(Cl)c4C)c23)C(=O)O)n1 [Example 24, 4-[2-(4-{(5Sa)-4-[(1R)-1-carboxy-2-(2-{[2-(2-methoxyphenyl)pyrimidin-4-yl]methoxy}phenyl)ethoxy]-6-(4-fluorophenyl)thieno[2,3-d]pyrimidin-5-yl}-2-chloro-3-methylphenoxy)ethyl]-1-{[(2,2-dimethylpropanoyl)oxy]methyl}-1-methylpiperazin-1-ium trifluoroacetate]	1.04e-09	2.52	
CCN(CC)C(=O)OC(C)[N+]1(C)CCN(CCOc2ccc(-c3c(-c4ccc(F)cc4)sc4ncnc(O[C@H](Cc5ccccc5OCc5ccnc(-c6ccccc6OC)n5)C(=O)O)c34)c(C)c2Cl)CC1 (stereo partly drawn) [Example 21, 4-[2-(4-{(5Sa)-4-[(1R)-1-carboxy-2-(2-{[2-(2-methoxyphenyl)pyrimidin-4-yl]methoxy}phenyl)ethoxy]-6-(4-fluorophenyl)thieno[2,3-d]pyrimidin-5-yl}-2-chloro-3-methylphenoxy)ethyl]-1-{1-[(diethylcarbamoyl)oxy]ethyl}-1-methylpiperazin-1-ium trifluoroacetate]	1.96e-09	70.4	
CCN(CC)C(=O)OC(C)[N+]1(C)CCN(CCOc2ccc(-c3c(-c4ccc(F)cc4)sc4ncnc(OC(Cc5ccccc5OCc5ccnc(-c6ccccc6OC)n5)C(=O)O)c34)c(Br)c2Cl)CC1 [Example 29, 4-[2-(3-bromo-4-{(5Sa)-4-[(1R)-1-carboxy-2-(2-{[2-(2-methoxyphenyl)pyrimidin-4-yl]methoxy}phenyl)ethoxy]-6-(4-fluorophenyl)thieno[2,3-d]pyrimidin-5-yl}-2-chlorophenoxy)ethyl]-1-{1-[(diethylcarbamoyl)oxy]ethyl}-1-methylpiperazin-1-ium trifluoroacetate]	1.36e-09	136	
CCOC(=O)OC[N+]1(C)CCN(CCOc2ccc(-c3c(-c4ccc(F)cc4)sc4ncnc(OC(Cc5ccccc5OCc5ccnc(-c6ccccc6OC)n5)C(=O)O)c34)c(Br)c2Cl)CC1 [Example 26, 4-[2-(3-bromo-4-{(5Sa)-4-[(1R)-1-carboxy-2-(2-{[2-(2-methoxyphenyl)pyrimidin-4-yl]methoxy}phenyl)ethoxy]-6-(4-fluorophenyl)thieno[2,3-d]pyrimidin-5-yl}-2-chlorophenoxy)ethyl]-1-{[(ethoxycarbonyl)oxy]methyl}-1-methylpiperazin-1-ium trifluoroacetate]	9.48e-10	2.29	
COc1ccccc1-c1nccc(COc2ccccc2CC(Oc2ncnc3sc(-c4ccc(F)cc4)c(-c4ccc(OCCN5CC[N+](C)(COP(=O)([O-])OCc6ccccc6)CC5)c(Cl)c4C)c23)C(=O)O)n1 [Example 2, benzyl {4-[2-(4-{(5Sa)-4-[(1R)-1-carboxy-2-(2-{[2-(2-methoxyphenyl)pyrimidin-4-yl]methoxy}phenyl)ethoxy]-6-(4-fluorophenyl)thieno[2,3-d]pyrimidin-5-yl}-2-chloro-3-methylphenoxy)ethyl]-1-methylpiperazin-1-ium-1-yl}methyl phosphate]	9.48e-10		10.9
COc1ccccc1-c1nccc(COc2ccccc2C[C@@H](Oc2ncnc3sc(-c4ccc(F)cc4)c(-c4ccc(OCCN5CC[N+](C)(Cc6oc(=O)oc6C)CC5)c(Cl)c4Br)c23)C(=O)O)n1 [Example 30, 4-[2-(3-bromo-4-{(5Sa)-4-[(1R)-1-carboxy-2-(2-{[2-(2-methoxyphenyl)pyrimidin-4-yl]methoxy}phenyl)ethoxy]-6-(4-fluorophenyl)thieno[2,3-d]pyrimidin-5-yl}-2-chlorophenoxy)ethyl]-1-methyl-1-[(5-methyl-2-oxo-1,3-dioxol-4-yl)methyl]piperazin-1-ium trifluoroacetate]	9.48e-10	2.81	
